Laboratory results as given in patent publication US20240309060A1, “POLYPEPTIDE BAX/NPM INHIBITORS” (TRUSTEES OF BOSTON UNIVERSITY, priority 2023, published 2024).
Square brackets hold non-standard residues; d marks the D form. βAla = NCCC(=O)O

Assays:
[1] = tested on: primary murine proximal tubule epithelial cells (PTEC); assay: MTT cell survival assay of kidney cells after ischemic stress in vitro induced by metabolic inhibitors; type: cell-based; conditions: for Cell survival data (ranking of peptides): normalized to negative control GFP fragment, FIG. 14; for Cytoprotective effects during ischemic stress in vitro: peptides 100 nM, metabolic inhibitors 60 min, recovery 6 hr, vs GFP negative control, FIG. 13
Procedure: FIG. 2 depicts an NPMB1 Alanine Scan. Relative kidney cell survival rate after 70 min ischemic stress in vitro induced by metabolic inhibitors in the presence of NPMB1 (control) vs. 19 different NPMBx polypeptides with single alanine substitutions (2 additional NPMB1 alanine residues were not substituted). Residue numbers (x axis) reflect Bax sequence that binds human NPM1; Survival data are normalized to NPMB1; post-ischemic kidney cell survival is shown in tertiles: (left-most group: 5-40% survival; middle-group: 55-70% and third group: 80-95%); n=3 separate experiments.
Relative kidney cell survival rate after 70 min ischemic stress in vitro induced by transient exposure to metabolic inhibitors in the presence of NPMB polypeptides (Agents 2, 5, 7, 14 that reflect alanine scan polypeptides A173, A187, A179, A176) vs. a non—specific polypeptide (GFP fragment). Survival data normalized to baseline (no stress); *P<0.01vs. baseline; t P<0.05 vs. stress; data represent 3 separate experiments; error bars represent mean+SD.
FIGS. 13A-13B depict the cytoprotective effects of select therapeutic peptides during ischemic stress in vitro. Primary murine proximal tubule epithelial cells (PTEC) were transiently exposed to metabolic inhibitors for 60 min and allowed to recover for 6 hr. to simulate ischemia in vivo; MTT assay estimated cell survival. “Control” (open bars); is a GFP fragment of similar size to the therapeutic peptides was used a negative control; NPMB1 (prototype) serves as a positive control. […] All peptides contained the nuclear localizing sequence (NLS) to enhance peptide delivery to the kidney, a beta linker and both carboxy-and amino terminal modifications to reduce susceptibility to protease digestion; data are mean+standard error; n=3 separate experiments. Figure discloses SEQ ID NOS 139, 134-135, 128, 127, and 138, respectively, in order of appearance.
Structure activity relationships of NPMB1 derivatives were determined through alanine scanning In these studies, 19 polypeptides were produced using methods shown in FIGS. 8-11 and their effect of kidney cell survival after ischemic stress was characterized using the MTT cell survival assay. Based on determination of relative kidney cell survival rate, polypeptides were grouped according to activity as shown in FIG. 2 (orange: 5-40% survival; blue 55-70% survival, or green 80-95% survival).

[2] = biological target: human NPM1 (Homo sapiens, UniProt P06748); assay: Surface plasmon resonance (SPR) binding of peptides to human NPM1; conditions: human NPM1, FIG. 14
Source text: FIG. 14 depicts a table of the association rate, dissociation rate and the calculated equilibrium dissociation constant for 10 representative therapeutic peptides as measured by Surface Plasmon Resonance (SPR). Mean rates are derived from at least three different peptide concentrations at levels below saturation with human NPM1. Cell survival data are normalized to the negative control (a GFP fragment of similar size to the therapeutic peptides) and represent the mean of at least 3 separate experiments.
FIG. 15 depicts an on-off rate map. A graph of the off-rate (x-axis) and on-rate (y-axis) of 10 representative peptides from different sets of modified peptides. Diagonal dash-lines represent the equilibrium dissociation constant (KD) estimates the NPM1 binding affinity for each peptide based on the distance to the lines.
The 3D helical wheel projection scan predicted that 5 of 6 peptide residues (except for L185) with intermediate effects on post-ischemic cell survival cluster in a single surface domain (FIGS. 6 and 7). These surface residues are likely regulating the binding affinity Kd) between the therapeutic peptide and NPM1, the human target protein. Since binding affinity (Kd) between the peptide drug and NPMB1 partly predicts its efficacy, a high throughput, quantitative surface plasmon resonance (SPR) assay was developed.
SPR was measured for 10 novel polypeptides with select single or double mutations. Both the measured peptide “on” and “off” rates for binding human NPM1 markedly differed (FIG. 15). […] For most modified peptides, greater protection against ischemic stress positively correlated with a low Kd. […] Overall, SPR data combined with cell survival data adequately informs the selection of therapeutic peptides based on the quantifiable effects of R group modifications on these parameters. The combination of SPR binding affinity and cell survival data in vitro effectively rank orders therapeutic peptides for in vivo testing in animals.

[3] = tested on: primary murine proximal tubule epithelial cells (PTEC); conditions: J Am Soc Nephrol 30: 50-62, 2019; cited from earlier work
[4] = tested on: in vivo mouse model of ischemic AKI; conditions: J Am Soc Nephrol 30: 50-62, 2019; cited from earlier work
[5] = biological target: human nucleophosmin (NPM1) (Homo sapiens, UniProt P06748); conditions: previously discovered by the applicant's team; cited from earlier work
[6] = tested on: human nucleophosmin (NPM1); conditions: in vivo (Wang 2019); cited from earlier work

human NPM1, sequence (P06748 whole entry, the tested form may be a part): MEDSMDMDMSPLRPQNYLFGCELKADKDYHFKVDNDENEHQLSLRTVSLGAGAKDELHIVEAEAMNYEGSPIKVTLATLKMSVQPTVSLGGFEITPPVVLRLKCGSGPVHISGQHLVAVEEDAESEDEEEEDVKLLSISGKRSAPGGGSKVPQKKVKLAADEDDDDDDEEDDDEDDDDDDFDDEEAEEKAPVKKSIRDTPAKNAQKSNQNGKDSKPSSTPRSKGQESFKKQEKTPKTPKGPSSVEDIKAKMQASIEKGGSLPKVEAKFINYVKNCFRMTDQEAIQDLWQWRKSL
human nucleophosmin (NPM1) (Homo sapiens, UniProt P06748), sequence (P06748 whole entry): as the sequence (P06748 whole entry, the tested form may be a part) above

| Substance | Cell survival data (ranking of peptides) [1] | Cytoprotective effects during ischemic stress in vitro [1] | Kd / NPM1 binding affinity in words [2] | further results |
| --- | --- | --- | --- | --- |
| Ac-PKKKRKV-Bala-TATLFVAGVLTASLTIWKKMG-OMe [NPMB1-X-013] | most effective | most robust protection | relatively low Kd values | – |
| Ac-PKKKRKV-Bala-TVTLFVAGVLTASLTIWKKMG-OMe [NPMB1-V-001] | most effective | – | relatively low NPM1 binding affinity | Degree of cytoprotection during ischemic stress ([1]; alanine scan and pro-helical mutations): highly effective |
| Ac-RREEERREEERREEEK-Bala-TVTIFVAGVLTASLTIWKKMG-OH (Ac-RREEERREEERREEEK[βAla]TVTIFVAGVLTASLTIWKKMG-OH; SMILES CC[C@H](C)[C@H](NC(=O)[C@@H](NC(=O)[C@H](CC(C)C)NC(=O)[C@H](CO)NC(=O)[C@H](C)NC(=O)[C@@H](NC(=O)[C@H](CC(C)C)NC(=O)[C@@H](NC(=O)CNC(=O)[C@H](C)NC(=O)[C@@H](NC(=O)[C@H](Cc1ccccc1)NC(=O)[C@@H](NC(=O)[C@@H](NC(=O)[C@@H](NC(=O)[C@@H](NC(=O)CCNC(=O)[C@H](CCCCN)NC(=O)[C@H](CCC(=O)O)NC(=O)[C@H](CCC(=O)O)NC(=O)[C@H](CCC(=O)O)NC(=O)[C@H](CCCNC(=N)N)NC(=O)[C@H](CCCNC(=N)N)NC(=O)[C@H](CCC(=O)O)NC(=O)[C@H](CCC(=O)O)NC(=O)[C@H](CCC(=O)O)NC(=O)[C@H](CCCNC(=N)N)NC(=O)[C@H](CCCNC(=N)N)NC(=O)[C@H](CCC(=O)O)NC(=O)[C@H](CCC(=O)O)NC(=O)[C@H](CCC(=O)O)NC(=O)[C@H](CCCNC(=N)N)NC(=O)[C@H](CCCNC(=N)N)NC(C)=O)[C@@H](C)O)C(C)C)[C@@H](C)O)[C@@H](C)CC)C(C)C)C(C)C)[C@@H](C)O)[C@@H](C)O)C(=O)N[C@@H](Cc1c[nH]c2ccccc12)C(=O)N[C@@H](CCCCN)C(=O)N[C@@H](CCCCN)C(=O)N[C@@H](CCSC)C(=O)NCC(=O)O) [NPMB1-I-011] | – | – | relatively low Kd | – |
| Ac-PKKKRKV-Bala-TVTIFVAGVLTASLTIWKKMG-OH [NPMB1, prototype peptide, positive control] | – | – | – | Kidney cell death in a cell-based assay [3]: inhibits kidney cell death; Kidney cell death in an in vivo mouse model of ischemic AKI [4]: inhibits kidney cell death; Binding to human nucleophosmin (NPM1) [5]: binds; NPM/Bax protein interaction [6]: competitively inhibits |
| Ac-PKKKRKV-Bala-TVTIAVAAVLTASLTIWKKMG-OMe [NPMB1-X-008] | – | – | relatively low Kd values | – |
| Ac-PKKKRKV-Bala-TATIAVAGVLTASLTIWKKMG-OMe [NPMB1-X-012] | most effective | most robust protection | relatively low Kd values | – |
